Laboratory results as given in patent US20260314597A1, “A NOVEL APPROACH TO INTERFERE IN THE PHENYLPROPANOID BIOSYNTHETIC PATHWAY TO REDUCE PINK-RIB DISORDER IN FRESH LETTUCE” (University of Florida Research Foundation, Inc., priority 2022, published 2026).
Entries after “also recorded” stand apart in the source; their conditions may differ.

What was measured:
[1] = system: polyphenol oxidase (PPO); assay: PPO activity in treated wounded midribs; type: biochemical, lettuce (iceberg, Romaine); conditions: 5 d at 5° C.; for PPO activity: L-cysteine 4.1 mM or melatonin 4.3 mM; for effect on PPO activity: iceberg and Romaine
Source text: (§1) In all tests, experimental setup began immediately upon arrival to the laboratory. 90 outer leaves were randomly selected from 18 to 22 lettuce heads that met commercial and damage-free quality standards. A midrib segment (12.5 cm) was excised from the center of each leaf and excess leaf blade tissue was trimmed parallel to the midrib. This procedure was adapted from the wounding procedure of Cantwell (2016). Each midrib was then partially sliced transversally at 1.3-cm increments along the midrib. Midribs (n=15) were immediately immersed for 30 s in one of five treatment solutions: deionized water (wounded control), L-cysteine (4.1 mM), naringenin (1.8 mM) with 20% dimethyl sulfoxide (DMSO), serotonin (2.8 or 5.7 mM) or melatonin (4.3 mM) with 0.50% DMSO. Immediately following immersion, the midribs for each treatment were patted dry using paper towels and placed (n=5) in a breathable, high-density polyethylene bag (n=3) (Narrow Profile Produce Bags [14×18 inches] Model No. S-19156, Uline®, Pleasant Prairie, WI). Unwounded control midribs were stored in the same manner. To allow for direct comparison, each cut site on each midrib was assigned an initial discoloration value on day 1 based on the coloration of the rib. Samples were stored at 5° C. with 95-98% relative humidity (RH) for 5 d, simulating commercial storage.
PPO activity was prepared and determined as reported by Teng et al. (2019) with slight modifications. Lettuce samples (300 mg) were homogenized in 150% (w/v) chilled phosphate buffer (pH 6.2, 0.05 M). Following chilling of test tubes with samples in an ice bath, samples were centrifuged at 9660×g for 10 min at 4° C. The increase in absorbance was measured every 3 s for 1 min. The slope of the linear portion of the time curve was calculated. One unit (U) of PPO activity was defined as an increase in OD410 of 0.1 unit within 1 min.
(§2) The imaging data (a* value), enzyme activity (PAL and PPO), and metabolite (chlorogenic acid) results were expressed as mean±standard error and analyzed by lettuce type (iceberg or Romaine). For imaging data, an unpaired t-test was used to identify differences within a treatment throughout storage and among treatment groups at each time point. Treatment groups were defined as wounded, unwounded, L-cysteine, and melatonin. […] Analyses of variance were performed for PAL, PPO, and metabolite analyses using SAS software (version 9.4; SAS Institute, Cary, NC) to identify differences among treatment groups. Differences among treatments groups were separated by Tukey's Honest Significant Difference (HSD) test with a confidence level of 95%. The correlation between visual rating and a* value was evaluated for significance via an F-test, from which the P-value of the correlation was calculated.

[2] = system: phenylalanine ammonia-lyase (PAL); assay: PAL activity in crude protein extracts of treated wounded midribs; type: biochemical, lettuce (iceberg, Romaine); conditions: 5 d at 5° C.; for PAL activity: L-cysteine 4.1 mM or melatonin 4.3 mM; for effect on PAL activity: iceberg and Romaine, vs wounded control
Source text: as §1
PAL activity was measured using a crude protein extraction following a method reported by Kim et al. (2020) with some modifications. Fresh lettuce samples (300 mg) were ground with liquid nitrogen in a pre-chilled mortar and pestle. A 0.1 mM Tris-HCl buffer (pH 8.3) was added at a 1:1 (w:v). The solution was incubated at 4° C. for 1 h and then centrifuged at 4° C., 9660×g for 15 min. Supernatants were collected in chilled tubes. Total protein content was measured using Quick Start Bradford protein assay kit (Bio-Rad, Hercules, CA, USA) and Bovine Serum Albumin (BSA) as a standard (10 mg mL^−1 in deionized water). Protein concentration was calculated based on the absorbance at 595 nm measured with a NanoDrop (One Microvolume UV-Vis Spectrophotometer, Thermo Scientific, Wilmington, DE, USA) and the standard curve. For the PAL activity test, 150 μL aliquots of the protein extract were incubated in a reaction buffer containing 0.1 mM Tris-HCl buffer (pH 8.3), 5 mM dithiothreitol (DTT), and 5 mM phenylalanine. Reaction mixtures were incubated at 37° C. for 90 min and stopped with the addition of 40 μL of 30% acetic acid. Reaction products were extracted with 600 μL of ethyl acetate and then centrifuged at 22° C., 9660×g for 5 min. The supernatant was dried in a speed vac and re-dissolved in 100 μL of 50% methanol. The final extract (10 μL) was analyzed by HPLC using the method previously described in Section 2.4.
as §2

[3] = system: iceberg and Romaine lettuce midribs; assay: Visual (subjective) pink rib development in wounded, immersed lettuce midribs stored at 5° C.; type: in vivo; conditions: for effect on pink rib discoloration: iceberg and Romaine; for duration of inhibition of pink rib development: 30 s immersion, 5° C.
Method: Six preliminary experiments were performed to determine treatment conditions for the three final experiments reported here. It was determined that the method developed by Cantwell (2016) induced pink rib discoloration in lettuce midribs during storage at 5° C. via mimicking mechanical damage and was, therefore, selected for use in all preliminary and final tests. […] Concentrations evaluated were: L-cysteine (0.4, 0.8, 2.1, 4.1, 8.3 mM), naringenin (0.2, 0.4, 0.9, 1.8, 3.7 mM), serotonin (2.8, 5.7 mM), and melatonin (0.2, 0.4, 1.1, 2.2, 4.3 mM) (data not presented). […] Therefore, this study employed the one or two concentrations for each compound with the greatest potential efficacy in three independent tests, Test 1 to 3 (Table 1).
For Test 1, the evaluations for pink rib development, protein quantification, and enzyme activity were conducted with Romaine and iceberg lettuce heads (36 heads per type; cultivars unknown) purchased (February 2020) upon arrival at a local grocery store in Gainesville, FL, and immediately transported to the Postharvest Horticulture Laboratory at the University of Florida in Gainesville, FL. For Test 2, metabolite extraction and detection were conducted with commercially grown, harvested, and cooled Romaine (‘Tall Guzmaine’) and iceberg (‘Chosen’) lettuce (December 2020) grown in Belle Glade, FL. For Test 3, untargeted metabolomics was performed using commercially grown, harvested, and cooled Romaine (‘Manatee’) lettuce grown in Belle Glade, FL (April 2021). To keep the lettuce head samples cool while preventing freeze damage during transport, a 3- to 6-inch layer of crushed ice was placed on the bottom of each 114-L cooler. A piece of waxed, corrugated fiberboard was placed on top of the ice prior to packing with the lettuce samples for transport the same day to the Postharvest Horticulture Laboratory in Gainesville (approximately 4 h distant).
as §1
All chemicals were of laboratory or reagent grade from Alfa Aesar (Thermo Fisher Scientific, Ward Hill, MA, USA) or Phyto Technology Laboratories (Shawnee Mission, KS, USA). L-cysteine (4.1 mM) solution was prepared by dissolving […] in 100 ml deionized water. Naringenin (1.8 mM) solution was prepared by dissolving […] in 20 mL of DMSO and diluting to a 100 mL volume with deionized water. A stock solution of serotonin (5.7 mM) was prepared by dissolving 100 mg of serotonin in 100 ml of deionized water; a second solution of serotonin (2.8 mM) was prepared by diluting the stock solution two-fold with deionized water. […]

SMILES	PPO activity ([1]; Romaine, wounded control 5.1)	effect on PPO activity [1]	PPO activity ([1]; iceberg, wounded control 1.7)	PAL activity ([2]; Romaine, wounded control 9.56)	effect on PAL activity [2]	PAL activity ([2]; iceberg, wounded control 6.73)	effect on pink rib discoloration ([3]; L-cysteine 4.1 mM, up to 5 d at 5° C., vs wounded control)	duration of inhibition of pink rib development ([3]; melatonin 4.3 mM, Romaine, vs wounded control)	duration of inhibition of pink rib development ([3]; melatonin 4.3 mM, iceberg, vs wounded control)	pink rib discoloration (visual) ([3]; melatonin 4.3 mM, Romaine, over 5 d at 5° C. (P=0.0058))	effect on pink rib discoloration ([3]; melatonin 4.3 mM, 5 d at 5° C., vs controls)
N[C@@H](CS)C(=O)O [L-cysteine]	6.4 U	no significant differences in PPO activity; also recorded: no effect on PPO activity; also recorded: neither PPO activity nor pink rib expression were reduced	2.6 U	11.07 pkat mg^−1	no significant reduction in PAL activity	5.43 pkat mg^−1	negligible effect on reducing pink rib; also recorded: equal or greater discoloration; also recorded: significantly higher discoloration than the control after 5 d; also recorded: ineffective in reducing pink rib; also recorded: neither PPO activity nor pink rib expression were reduced				
COc1ccc2[nH]cc(CCNC(C)=O)c2c1 [melatonin]	6.2 U	no significant differences in PPO activity; also recorded: no effect on PPO activity; also recorded: neither enzyme activity (PAL or PPO) nor chlorogenic acid concentration were impacted; also recorded: did not significantly affect PAL or PPO enzyme activities	2.6 U	6.06 pkat mg^−1	no significant reduction in PAL activity; also recorded: neither enzyme activity (PAL or PPO) nor chlorogenic acid concentration were impacted; also recorded: did not significantly affect PAL or PPO enzyme activities	7.44 pkat mg^−1		3 days	5 days	slight (2=slight)	equal to or similar to unwounded controls; also recorded: dramatically less pink rib discoloration
